Test results: ChEMBL document CHEMBL3875174, “Further investigation of Paprotrain: Towards the conception of selective and multi-targeted CNS kinase inhibitors” (Eur J Med Chem, 2016)

Key:
[1] = molecular target: Dual specificity protein kinase CLK3 (Homo sapiens, UniProt P49761); assay: Inhibition of GST-tagged human recombinant CLK3 expressed in Escherichia coli using RS peptide as substrate incubated for 30 mins in presence of [gamma-33 P] ATP by liquid scintillation counting analysis
[2] = molecular target: Dual specificity tyrosine-phosphorylation-regulated kinase 1A (Homo sapiens, UniProt Q13627); assay: Inhibition of GST-tagged human recombinant DYRK1A expressed in Escherichia coli using RS peptide as substrate incubated for 30 mins in presence of [gamma-33 P] ATP by liquid scintillation counting analysis
[3] = Inhibition of porcine brain CK1 delta/epsilon using RRKHAAIGpSAYSITA as substrate incubated for 30 mins in presence of [gamma-33 P] ATP by liquid scintillation counting analysis; design: species or system Sus scrofa
[4] = molecular target: Glycogen synthase kinase-3 (Sus scrofa, UniProt B2LUN4+I6LNT8); assay: Inhibition of porcine brain GSK3alpha/beta using GS-1 as substrate incubated for 30 mins in presence of [gamma-33 P] ATP by liquid scintillation counting analysis
[5] = molecular target: Dual specificity protein kinase CLK4 (Homo sapiens, UniProt Q9HAZ1); assay: Inhibition of GST-tagged human recombinant CLK4 expressed in Escherichia coli using RS peptide as substrate incubated for 30 mins in presence of [gamma-33 P] ATP by liquid scintillation counting analysis
Sequence of Dual specificity protein kinase CLK4 (Q9HAZ1 whole entry): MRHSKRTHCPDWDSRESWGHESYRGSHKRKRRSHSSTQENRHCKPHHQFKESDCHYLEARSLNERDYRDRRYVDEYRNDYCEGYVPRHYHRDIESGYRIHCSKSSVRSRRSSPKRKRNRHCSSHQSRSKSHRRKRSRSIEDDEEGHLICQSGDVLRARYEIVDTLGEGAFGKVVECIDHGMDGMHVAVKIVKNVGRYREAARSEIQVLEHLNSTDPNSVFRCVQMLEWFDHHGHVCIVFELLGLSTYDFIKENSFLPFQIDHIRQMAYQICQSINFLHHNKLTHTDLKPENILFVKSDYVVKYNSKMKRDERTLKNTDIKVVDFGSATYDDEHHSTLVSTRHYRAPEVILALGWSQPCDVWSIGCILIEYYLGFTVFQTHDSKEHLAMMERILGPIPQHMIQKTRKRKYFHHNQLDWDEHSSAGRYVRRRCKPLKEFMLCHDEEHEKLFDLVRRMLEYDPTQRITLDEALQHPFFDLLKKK

[6] = Cytotoxicity against human KB cells assessed as growth inhibition at 1 uM after 72 hrs by MTS assay; type: toxicity, cell-based; details: for inhibition at 72 h, 1 µM: KB cells, read-out: GI; for growth inhibition (GI): kb, 72 h, 1 µM
[7] = molecular target: Dual specificity tyrosine-phosphorylation-regulated kinase 1B (Homo sapiens, UniProt Q9Y463); assay: Inhibition of GST-tagged human recombinant DYRK1B expressed in Escherichia coli using RS peptide as substrate incubated for 30 mins in presence of [gamma-33 P] ATP by liquid scintillation counting analysis
Sequence of Dual specificity tyrosine-phosphorylation-regulated kinase 1B (Q9Y463 whole entry): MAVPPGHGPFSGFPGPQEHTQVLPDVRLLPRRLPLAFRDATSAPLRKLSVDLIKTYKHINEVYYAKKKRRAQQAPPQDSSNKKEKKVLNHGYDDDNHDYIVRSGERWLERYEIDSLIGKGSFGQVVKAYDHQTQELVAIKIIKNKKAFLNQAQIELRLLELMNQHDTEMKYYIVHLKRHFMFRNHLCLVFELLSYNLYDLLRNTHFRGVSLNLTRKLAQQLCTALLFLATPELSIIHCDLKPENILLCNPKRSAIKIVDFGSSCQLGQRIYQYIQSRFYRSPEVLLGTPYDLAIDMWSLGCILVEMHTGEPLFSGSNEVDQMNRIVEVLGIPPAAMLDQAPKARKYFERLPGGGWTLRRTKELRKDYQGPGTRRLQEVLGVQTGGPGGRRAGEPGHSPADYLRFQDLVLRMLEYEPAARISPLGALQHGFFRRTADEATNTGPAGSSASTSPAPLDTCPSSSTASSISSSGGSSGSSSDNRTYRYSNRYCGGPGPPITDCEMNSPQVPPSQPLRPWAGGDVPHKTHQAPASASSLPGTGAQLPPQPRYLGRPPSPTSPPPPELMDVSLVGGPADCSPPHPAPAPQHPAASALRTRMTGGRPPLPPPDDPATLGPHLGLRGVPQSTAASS

[8] = molecular target: Cyclin-dependent kinase 5/CDK5 activator 1 (Homo sapiens, UniProt Q00535); type: protein-complex assay
Sequence of Cyclin-dependent kinase 5/CDK5 activator 1 (Q00535 whole entry): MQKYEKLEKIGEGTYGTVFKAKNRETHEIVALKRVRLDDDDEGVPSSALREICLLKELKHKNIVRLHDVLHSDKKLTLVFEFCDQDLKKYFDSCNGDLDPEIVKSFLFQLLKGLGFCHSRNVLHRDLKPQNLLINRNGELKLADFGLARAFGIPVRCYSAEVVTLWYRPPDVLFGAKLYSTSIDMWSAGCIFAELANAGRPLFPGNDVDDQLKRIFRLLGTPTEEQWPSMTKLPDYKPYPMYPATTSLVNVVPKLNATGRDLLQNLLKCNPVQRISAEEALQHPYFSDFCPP
Sequence of Cyclin-dependent kinase 5/CDK5 activator 1 (Q15078 whole entry, further chain): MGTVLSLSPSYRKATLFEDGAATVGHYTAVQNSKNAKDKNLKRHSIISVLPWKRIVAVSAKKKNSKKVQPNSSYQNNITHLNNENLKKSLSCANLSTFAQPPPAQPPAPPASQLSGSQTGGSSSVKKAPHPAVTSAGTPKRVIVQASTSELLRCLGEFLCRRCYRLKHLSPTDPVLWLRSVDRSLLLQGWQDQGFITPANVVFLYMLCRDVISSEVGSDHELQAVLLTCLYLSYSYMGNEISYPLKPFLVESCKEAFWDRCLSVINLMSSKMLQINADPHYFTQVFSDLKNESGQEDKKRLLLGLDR

[9] = molecular target: Dual specificity protein kinase CLK1 (Homo sapiens, UniProt P49759); assay: Inhibition of GST-tagged human recombinant CLK1 expressed in Escherichia coli using RS peptide as substrate incubated for 30 mins in presence of [gamma-33 P] ATP by liquid scintillation counting analysis
Sequence of Dual specificity protein kinase CLK1 (P49759 whole entry): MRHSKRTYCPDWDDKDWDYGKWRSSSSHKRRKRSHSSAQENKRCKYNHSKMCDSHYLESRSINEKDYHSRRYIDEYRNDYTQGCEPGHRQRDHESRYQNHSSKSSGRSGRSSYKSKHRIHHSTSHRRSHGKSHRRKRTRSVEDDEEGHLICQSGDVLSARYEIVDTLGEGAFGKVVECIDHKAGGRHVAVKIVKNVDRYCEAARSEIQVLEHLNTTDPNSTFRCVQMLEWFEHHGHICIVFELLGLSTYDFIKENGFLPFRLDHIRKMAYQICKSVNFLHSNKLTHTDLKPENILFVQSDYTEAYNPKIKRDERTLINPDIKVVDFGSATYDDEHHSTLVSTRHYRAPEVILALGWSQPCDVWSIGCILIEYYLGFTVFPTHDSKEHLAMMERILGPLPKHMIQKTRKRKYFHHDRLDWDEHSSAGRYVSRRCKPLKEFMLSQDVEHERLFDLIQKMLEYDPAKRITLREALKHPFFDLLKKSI

[10] = molecular target: Dual specificity protein kinase CLK2 (Homo sapiens, UniProt P49760); assay: Inhibition of GST-tagged human recombinant CLK2 expressed in Escherichia coli using RS peptide as substrate incubated for 30 mins in presence of [gamma-33 P] ATP by liquid scintillation counting analysis
Sequence of Dual specificity protein kinase CLK2 (P49760 whole entry): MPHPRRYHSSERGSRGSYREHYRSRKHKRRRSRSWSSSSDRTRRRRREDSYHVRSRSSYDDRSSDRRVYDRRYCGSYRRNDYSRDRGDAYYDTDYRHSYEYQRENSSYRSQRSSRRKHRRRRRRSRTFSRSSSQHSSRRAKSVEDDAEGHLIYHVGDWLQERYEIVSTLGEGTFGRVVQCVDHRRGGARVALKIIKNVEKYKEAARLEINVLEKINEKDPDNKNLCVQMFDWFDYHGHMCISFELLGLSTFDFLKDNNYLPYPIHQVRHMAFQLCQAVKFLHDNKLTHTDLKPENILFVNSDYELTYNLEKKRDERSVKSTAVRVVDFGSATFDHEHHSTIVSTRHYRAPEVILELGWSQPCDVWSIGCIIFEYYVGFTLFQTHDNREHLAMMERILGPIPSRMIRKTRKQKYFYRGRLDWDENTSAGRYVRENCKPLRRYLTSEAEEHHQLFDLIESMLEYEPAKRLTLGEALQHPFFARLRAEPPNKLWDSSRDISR

Sequence of Dual specificity protein kinase CLK3 (P49761 whole entry): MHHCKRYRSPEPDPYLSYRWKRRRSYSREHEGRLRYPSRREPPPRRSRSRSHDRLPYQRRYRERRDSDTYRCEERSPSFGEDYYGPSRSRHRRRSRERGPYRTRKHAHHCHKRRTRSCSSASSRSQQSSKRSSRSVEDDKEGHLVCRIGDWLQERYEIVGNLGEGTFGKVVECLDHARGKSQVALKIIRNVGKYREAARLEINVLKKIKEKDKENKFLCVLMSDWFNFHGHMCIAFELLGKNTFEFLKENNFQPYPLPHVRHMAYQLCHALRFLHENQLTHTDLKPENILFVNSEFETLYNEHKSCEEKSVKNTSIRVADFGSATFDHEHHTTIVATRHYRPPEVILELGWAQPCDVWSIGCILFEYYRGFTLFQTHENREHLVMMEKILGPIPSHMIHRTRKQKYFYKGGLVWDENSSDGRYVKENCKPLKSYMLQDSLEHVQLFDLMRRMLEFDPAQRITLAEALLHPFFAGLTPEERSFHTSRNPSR

Row | SMILES | IC50 [1] | IC50 [2] | IC50 [3] | IC50 [4] | IC50 [5] | inhibition at 72 h, 1 µM [6] | IC50 [7] | IC50 [8] | IC50 [9] | IC50 [10] | growth inhibition (GI) [6]
1 | COc1cccc2[nH]c3c4ccncc4cc(C#N)c3c12 | > 10000 nM | 850 nM | > 10000 nM | > 10000 nM | 100 nM | 13% | > 10000 nM | > 10000 nM | 620 nM | 4000 nM | 
2 | N#Cc1cc2cnccc2c2[nH]c3ccc(F)cc3c12 | > 10000 nM | 310 nM | > 10000 nM | > 10000 nM | 200 nM |  | 300 nM | > 10000 nM | 230 nM | 610 nM | Non-Toxic
3 | COc1ccc2c(c1)[nH]c1c3ccncc3cc(CN)c21 | 7000 nM | 870 nM | > 10000 nM | > 10000 nM | 270 nM | 85% | 910 nM | 5600 nM | 830 nM | 1600 nM | 
4 | N#Cc1cc2cnccc2c2[nH]c3ncccc3c12 | 6800 nM | 440 nM | > 10000 nM | 1800 nM | 130 nM |  | 160 nM | 780 nM | 160 nM | 400 nM | Non-Toxic
5 | COc1ccc2c(c1)[nH]c1c3ccncc3cc(CNC(C)=O)c21 | 8000 nM | 970 nM | > 10000 nM | > 10000 nM | 690 nM | 16% | 900 nM | 6000 nM | 2400 nM | 2800 nM | 
